From US20090239880A1, “COMBINATIONS OF MONOAMINE REUPTAKE INHIBITORS AND POTASSIUM CHANNEL ACTIVATORS” (priority 2006, published 2009)
Counter-ions that a name gives are not always drawn.

Legend:
[1] = target: SK3 channels (Homo sapiens, UniProt Q9UGI6); test: inhibition of SK3 channels in patchclamp electrophysiology (selectivity over monoamine reuptake in vitro); assay type: cell-based; settings: patchclamp electrophysiology vs [3H]DA, [3H]5-HT and [3H]NA reuptake in vitro
[2] = test system: NMRI mice; test: nialamide induced 5-HT syndrome paradigm; assay type: in vivo; settings: nialamide 50 mg/kg s.c. at -120 min, test compound 0.3-3 mg/kg i.p. combined with sub-threshold citalopram 1 mg/kg p.o. at 0 min
Experimental: Method: Mice were administered nialamide (50 mg/kg, s.c., −120 min) followed by the test compound (0.3-3 mg/kg, i.p.) and citalopram (1 mg/kg, p.o) at time-point 0 min. The presence of head twitches, hindlimb abduction, head weaving, and piano playing behaviours were then scored by a trained observer using a recognised rating scale: maximum score/mouse=4, minimum score/mouse=0.

[3] = test system: NMRI mice; test: reversal of tetrabenazine-induced ptosis; assay type: in vivo; settings: test compound 0.3-3 mg/kg i.p. combined with sub-threshold reboxetine 0.1 mg/kg p.o. at -60 min, tetrabenazine 40 mg/kg i.p. at -30 min
Experimental: Method: Mice were administered the test compound (0.3-3 mg/kg, i.p.) and reboxetine (0.1 mg/kg, p.o.) at timepoint −60 min, followed by tetrabenazine (40 mg/kg, i.p., −30 min). The presence of ptosis was then scored by a trained observer using a recognised rating scale: maximum score/mouse=4, minimum score/mouse=0.

Compound	melting point	other results
Clc1ccc(OC2CCN(c3nc4ccccc4[nH]3)CC2)cc1Cl (as salt: hydrochloride) [Example 10, 2-[4-(3,4-Dichlorophenoxy)piperidin-1-yl]-1H-benzoimidazole]	297 to 298 °C	
c1ccc(C(c2ccccc2)N2CCN(c3nc4ccccc4[nH]3)CC2)cc1 [Example 6, 2-(4-Benzhydrylpiperazin-1-yl)-1H-benzoimidazole]	> 230 °C (dec.)	
N=c1n(Cc2ccc(F)c(F)c2)c2ccccc2n1Cc1ccc(F)c(F)c1 [test compound, 1,3-Bis-(3,4-difluoro-benzyl)-1,3-dihydro-benzoimidazol-2-ylideneamine]		selectivity for inhibition of SK3 channels over inhibiton of [3H]DA, [3H]5-HT and [3H]NA reuptake [1]: more than 100 fold; effect on ability of citalopram to induce symptoms analagous to the serotonin syndrome (5-HT syndrome score) [2]: enhanced the ability of the latter to induce symptoms analagous to the serotonin syndrome; effect on ability of reboxetine to reverse tetrabenazine-induced ptosis (ptosis score) [3]: enhanced the ability of the latter to reverse tetrabenazine-incuced ptosis
OC(c1ccccc1)(c1ccccc1)C1CCN(c2nc3ccccc3[nH]2)CC1 [Example 3, [1(1H-Benzoimidazol-2-yl)-piperidin-4-yl]diphenylmethanol]	237 to 239 °C	
Fc1ccc(C(c2ccc(F)cc2)N2CCN(c3nc4ccccc4[nH]3)CC2)cc1 (as salt: hydrochloride) [Example 9, 2-{4-[Bis-(4-fluorophenyl)methyl]piperazin-1-yl}-1H-benzoimidazole]	> 240 °C (dec.)	
c1ccc(C(=C2CCN(c3nc4ccccc4[nH]3)CC2)c2ccccc2)cc1 [Example 12, 2-(4-Benzhydrylidene-piperidin-1-yl)-1H-benzoimidazole]	229 to 230 °C	

Second part, led by results:

melting point	Compound	other results
268 to 270 °C	Clc1ccc(CC2CCN(c3nc4ccccc4[nH]3)CC2)cc1Cl (as salt: salt) [Example 1, 2-[4-(3,4-Dichlorobenzyl)piperidin-1-yl]-1H-benzoimidazole]	
256 to 258 °C	c1ccc(C(c2ccccc2)C2CCN(c3nc4ccccc4[nH]3)CC2)cc1 [Example 13, 2-(4-Benzhydryl-piperidin-1-yl)-1H-benzoimidazole]	
155 to 155.5 °C	Fc1ccc(Cn2c(N3CCC(Cc4ccccc4)CC3)nc3ccccc32)cc1F [Example 5, 2-(4-Benzylpiperidin-1-yl)-1-(3,4-difluorobenzyl)-1H-benzoimidazole]	
193 to 194 °C	c1ccc(CC2CCN(c3nc4ccccc4[nH]3)CC2)cc1 [Example 2, 2-(4-Benzylpiperidin-1-yl)-1H-benzoimidazole]	
124 to 125.5 °C	FC(F)(F)c1cc(Cn2c(N3CCC(Cc4ccccc4)CC3)nc3ccccc32)ccc1Cl [Example 4, 2-(4-Benzylpiperidin-1-yl)-1-[4-chloro-3-(trifluoromethyl)benzyl]-1H-benzoimidazole]	
